Data from US11179501B2, “Bone morphogenetic protein pathway activation, compositions for ossification, and methods related thereto” (Emory University, priority 2011, dated 2021).
Where a name gives a salt, the structure may show the parent alone.

Columns and labels:
C2C12 cells [1] = experiment: Alkaline phosphatase (ALP) assay: potentiation of BMP-2-induced ALP activity; details: C2C12 cells; for cell lifting from culture plates: ALP assay
Description: (§1) Their activity was evaluated by determining the potentiation of alkaline phosphatase activity in sub-optimal doses of BMP in the presence or absence of exogenously added noggin.
The BMP-potentiating activities of compounds may be evaluated by monitoring several markers of the osteoblastic phenotype corresponding to various time points during phenotype differentiation of C2C12 cells towards terminally differentiated osteoblasts.
The C2C12 cells at passages 5 to 10 were subcultured in T-75 cm^2 flasks in DMEM supplemented with 10% FBS at 37° C. in 5% CO2 with humidification. When the flasks reached 80% confluence, the cells were trypsinized and seeded in triplicate.
The C2C12 cells were plated at 200,000 cells/well in 6-well plates and grown overnight in DMEM containing 10% FBS. On day 2, the culture medium was replaced with DMEM containing 2% FBS and the cells were treated with various concentrations of compound for 24 hours. On day 3, the culture medium was replaced with DMEM containing 2% FBS and the cells were treated with 50 ng/ml of BMP-2 and various concentrations of compound for 72 hours. The cells were washed with phosphate-buffered saline (PBS) and lysed by addition of lysis buffer (10 mM Tris-HCl pH 8.0, 1 mM MgCl2 and 1.0% Triton X-100). The cell lysates were centrifuged for 5 minutes at 13,000×g. The supernatant was removed and the aliquots were assayed for ALP activity and protein amount. The ALP activity was measured in triplicate using an ALP assay kit (Sigma-Aldrich, St. Louis, Mo.) in microtiter plates. The protein amount was determined with Bio-Rad protein assay reagent (Bio-Rad, Hercules, Calif.) using bovine serum albumin (BSA) as a standard. The ALP activity (nmoles of p-nitrophenol per ml) was normalized to the protein amount (nmoles of p-nitrophenol per μg).

C2C12 cells [2] = experiment: BMP-Noggin competitive alkaline phosphatase (ALP) assay; assay type: cell-based, Mouse; details: BMP-Noggin competitive ALP assay, low cell number and low yield of protein
Description: as §1
Mouse C2C12 cells and Dulbecco's modified Eagle's medium (DMEM) were purchased from ATCC (Manassas, Va.). The non-heat inactivated fetal bovine serum (FBS) was purchased from HyClone Laboratories, Inc. (Logan, Utah). The C2C12 cells at passages 5 to 10 were subcultured in T-75 cm^2 flasks in DMEM supplemented with 10% FBS at 37° C. in 5% CO2 with humidification. When the flasks reached 80% confluence, the cells were trypsinized and seeded in triplicate.
The C2C12 cells were plated at 200,000 cells/well in 6-well plates and grown overnight in DMEM containing 10% FBS. On day 2, the culture medium was replaced with DMEM containing 2% FBS and the cells were treated with 90-100 ng/ml of BMP-2 (as noted in each experiment), various concentrations of compound, and 100-120 ng/ml of noggin (as noted in each experiment) for 72 hours. The cells were washed with phosphate-buffered saline (PBS) and lysed by addition of lysis buffer (10 mM Tris-HCl pH 8.0, 1 mM MgCl2 and 1.0% Triton X-100). The cell lysates were centrifuged for 5 minutes at 13,000×g. The supernatant was removed and the aliquots were assayed for ALP activity and protein amount. The ALP activity was measured in triplicate using an ALP assay kit (Sigma-Aldrich, St. Louis, Mo.) in microtiter plates. The protein amount was determined with Bio-Rad protein assay reagent (Bio-Rad, Hercules, Calif.) using bovine serum albumin (BSA) as a standard. The ALP activity (nmoles of p-nitrophenol per ml) was normalized to the protein amount (nmoles of p-nitrophenol per μg).

Sprague Dawley rats = experiment: Collagen disc implantation with macrolides in rat ectopic model; assay type: in vivo; design: Ave. (Xray score): scale not given here; details: for Ave. (Xray score) / Results (bone, animals with bone of 4): 100 ul, collagen, no BMP-2, 4 weeks; for De novo bone formation: local, collagen disc, chest implant, absence of BMP-2, 4 weeks
Excerpt: Sprague Dawley rats about 5-6 weeks of age were chest implanted with a collagen disc (diameter of 1.0 cm and height of 2.0 mm; total volume of 150 cubic millimeters) and doses of macrolides in the absence of BMP-2. After 4 weeks the rats were sacrificed and evaluated for bone growth. […] In certain embodiments, the disclosure contemplates local bone formation for fracture repair, segmental bone defects, spine fusion, bone grafting, and regional bone enhancement for osteopenic bones before they fracture (e.g. hip, vertebral body, etc) by deliver locally to induce local bone formation.

SMILES	Fold-increase of BMP-induced ALP (over BMP alone control) (C2C12 cells [1])	cell lifting from culture plates (C2C12 cells [1])	other results
C#CC(c1ccccc1)(c1ccccc1)n1ccnc1 [1-(1,1-diphenylprop-2-yn-1-yl)-1H-imidazole]	7.0		
O=c1[nH]cc(F)c(=O)[nH]1 [5-fluorouracil]		caused cell lifting from culture plates	
CC[C@@]1(O)C(=O)OCc2c1cc1n(c2=O)Cc2cc3c(N)cccc3nc2-1 [9-aminocamptothecin]	10.0		
CCCSc1ccc2nc(NC(=O)OC)[nH]c2c1 [Albendazole, albendazole]		caused cell lifting from culture plates	
C[C@H]1[C@H](OC(=O)CCC(=O)O)O[C@@H]2O[C@@]3(C)CC[C@H]4[C@H](C)CC[C@@H]1[C@@]24OO3 [Artesunate, 4-oxo-4-(((3R,5aS,6R,8aS,9R,10R,12R,12aR)-3,6,9-trimethyldecahydro-3H-3,12-epoxy[1,2]dioxepino[4,3-i]isochromen-10-yl)oxy)butanoic acid]			cell lifting from culture plates (C2C12 cells [2]): caused cell lifting from culture plates
Nc1nc2ccc(Cl)cc2c2nc(-c3ccco3)nn12 [CGS 15943, 9-chloro-2-(furan-2-yl)[1,2,4]triazolo[1,5-c]quinazolin-5-amine]			cell lifting from culture plates (C2C12 cells [2]): caused cell lifting from culture plates
C=C1/C(=C\C=C2/CCC[C@]3(C)[C@@H]([C@H](C)/C=C/[C@@H](O)C4CC4)CC[C@@H]23)C[C@@H](O)C[C@@H]1O [Calcipotriol, calcipotriol]		caused cell lifting from culture plates	
Nc1ccn([C@@H]2O[C@H](CO)[C@@H](O)[C@@H]2O)c(=O)n1 [Cytarabine HCl]	2.0		
COc1cccc2c1C(=O)c1c(O)c3c(c(O)c1C2=O)C[C@@](O)(C(C)=O)C[C@@H]3O[C@H]1C[C@H](N)[C@H](O)[C@H](C)O1 [Daunorubicin hydrochloride]	7.0	caused cell lifting from culture plates	
Nc1ncn([C@H]2C[C@H](O)[C@@H](CO)O2)c(=O)n1 [Decitabine]	6.0		
CC(=O)O[C@@]12CO[C@@H]1C[C@H](O)[C@@]1(C)C(=O)[C@H](O)C3=C(C)[C@@H](OC(=O)[C@H](O)[C@@H](NC(=O)OC(C)(C)C)c4ccccc4)C[C@](O)([C@@H](OC(=O)c4ccccc4)[C@H]21)C3(C)C [Docetaxel, (2aR,4S,4aS,6R,9S,11R,12S,12aR,12b S)-12b-acetoxy-9-(((2R,3S)-3-((tert-butoxycarbonyl)amino)-2-hydroxy-3-phenylpropanoyl)oxy)-4,6,11-trihydroxy-4a,8,13,13-tetramethyl-5-oxo-2a,3,4,4a,5,6,9,10,11,12,12a,12b-dodecahydro-1H-7,11-methanocyclodeca[3,4]benzo[1,2-b]oxet-12-yl benzoate]		caused cell lifting from culture plates	
COc1cccc2c1C(=O)c1c(O)c3c(c(O)c1C2=O)C[C@@](O)(C(=O)CO)C[C@@H]3O[C@H]1C[C@H](N)[C@H](O)[C@H](C)O1 [Doxorubicin]	4.0		
Clc1ccc(COC(Cn2ccnc2)c2ccc(Cl)cc2Cl)cc1 (centres unmarked) [Econazole nitrate, econazole nitrate]		caused cell lifting from culture plates	
CO[C@H]1C[C@@H]2CC[C@@H](C)[C@@](O)(O2)C(=O)C(=O)N2CCCC[C@H]2C(=O)O[C@H]([C@H](C)C[C@@H]2CC[C@@H](OCCO)[C@H](OC)C2)CC(=O)[C@H](C)/C=C(\C)[C@@H](O)[C@@H](OC)C(=O)[C@H](C)C[C@H](C)/C=C/C=C/C=C/1C [Everolimus, everolimus]			Ave. (Xray score) (Sprague Dawley rats; dose 10 mM): 0; Results (bone, animals with bone of 4) (Sprague Dawley rats; dose 10 mM): No bone (0 of 4); Ave. (Xray score) (Sprague Dawley rats; dose 15 mM): 2.5; Results (bone, animals with bone of 4) (Sprague Dawley rats; dose 15 mM): Bone (3 of 4); Ave. (Xray score) (Sprague Dawley rats; dose 20 mM): 3.75; Results (bone, animals with bone of 4) (Sprague Dawley rats; dose 20 mM): Bone (4 of 4); Ave. (Xray score) (Sprague Dawley rats; dose 25 mM): 4.75; Results (bone, animals with bone of 4) (Sprague Dawley rats; dose 25 mM): Bone (4 of 4); Ave. (Xray score) (Sprague Dawley rats; dose 30 mM): 3.75; Results (bone, animals with bone of 4) (Sprague Dawley rats; dose 30 mM): Bone (3 of 4); Ave. (Xray score) (Sprague Dawley rats; dose 35 mM): 4.75; Results (bone, animals with bone of 4) (Sprague Dawley rats; dose 35 mM): Bone (4 of 4); De novo bone formation (Sprague Dawley rats): De novo bone formation is demonstrated locally
CO[C@@]12[C@H](COC(N)=O)C3=C(C(=O)C(C)=C(N)C3=O)N1C[C@@H]1N[C@@H]12 [Mitomycin C]	12.0		
O=C1c2c(O)ccc(O)c2C(=O)c2c(NCCNCCO)ccc(NCCNCCO)c21 [Mitoxantrone, mitoxantrone]	4.0	caused cell lifting from culture plates	
Cc1ccc(Nc2nccc(N(C)c3ccc4c(C)n(C)nc4c3)n2)cc1S(N)(=O)=O [Pazopanib]	2.5		
COC1CC2CCC(C)C(O)(O2)C(=O)C(=O)N2CCCCC2C(=O)OC(C(C)CC2CCC(O)C(OC)C2)CC(=O)C(C)C=C(C)C(O)C(OC)C(=O)C(C)CC(C)C=CC=CC=C1C (centres unmarked) [Sirolimus, 9,10,12,13,14,21,22,23,24,25,26,27,32,33,34,34a-Hexadecahydro-9,27-dihydroxy-3-[2-[4-hydroxy-3-methoxycyclohexyl]-1-methylethyl]-10,21-dimethoxy-6,8,12,14,20,26-hexamethyl-23,27-epoxy-3H-pyrido[2,1-c][1,4]oxaazacyclohentriacontine-1,5,11,28,29(4H,6H,31H)-pentone]			Ave. (Xray score) (Sprague Dawley rats; dose 10 mM): 0.25; Results (bone, animals with bone of 4) (Sprague Dawley rats; dose 10 mM): Bone (1 of 4); Ave. (Xray score) (Sprague Dawley rats; dose 15 mM): 0.5; Results (bone, animals with bone of 4) (Sprague Dawley rats; dose 15 mM): Bone (1 of 4); Ave. (Xray score) (Sprague Dawley rats; dose 20 mM): 0.75; Results (bone, animals with bone of 4) (Sprague Dawley rats; dose 20 mM): Bone (1 of 4); Ave. (Xray score) (Sprague Dawley rats; dose 25 mM): 2.75; Results (bone, animals with bone of 4) (Sprague Dawley rats; dose 25 mM): Bone (3 of 4); Ave. (Xray score) (Sprague Dawley rats; dose 30 mM): 3.5; Results (bone, animals with bone of 4) (Sprague Dawley rats; dose 30 mM): Bone (3 of 4); Ave. (Xray score) (Sprague Dawley rats; dose 35 mM): 4.25; Results (bone, animals with bone of 4) (Sprague Dawley rats; dose 35 mM): Bone (4 of 4); De novo bone formation (Sprague Dawley rats): De novo bone formation is demonstrated locally
CCN(CC)CCNC(=O)c1c(C)[nH]c(/C=C2\C(=O)Nc3ccc(F)cc32)c1C [Sunitinib]	4.0		
COc1cc([C@@H]2c3cc4c(cc3[C@@H](O[C@@H]3O[C@@H]5CO[C@@H](c6cccs6)O[C@H]5[C@H](O)[C@H]3O)[C@H]3COC(=O)[C@H]23)OCO4)cc(OC)c1O [Teniposide]	7.0		
CC[C@@]1(O)C(=O)OCc2c1cc1n(c2=O)Cc2cc3c(CN(C)C)c(O)ccc3nc2-1 [Topotecan]	4.0		
CCCCC(=O)OCC(=O)[C@]1(O)Cc2c(O)c3c(c(O)c2[C@@H](O[C@H]2C[C@H](NC(=O)C(F)(F)F)[C@H](O)[C@H](C)O2)C1)C(=O)c1c(OC)cccc1C3=O [Valrubicin]	3.0		
CC[C@]1(O)C[C@H]2CN(CCc3c([nH]c4ccccc34)[C@@](C(=O)OC)(c3cc4c(cc3OC)N(C=O)[C@H]3[C@@](O)(C(=O)OC)[C@H](OC(C)=O)[C@]5(CC)C=CCN6CC[C@]43[C@@H]65)C2)C1 [Vincristine]	5.0		
CCC1=C[C@@H]2CN(C1)Cc1c([nH]c3ccccc13)[C@@](C(=O)OC)(c1cc3c(cc1OC)N(C)[C@H]1[C@@](O)(C(=O)OC)[C@H](OC(C)=O)[C@]4(CC)C=CCN5CC[C@]31[C@@H]54)C2 [Vinorelbine tartrate]	4.0	caused cell lifting from culture plates	
C=C1/C(=C\C=C2/CCC[C@]3(C)[C@@H]([C@H](C)CCCC(C)(C)O)CC[C@@H]23)C[C@@H](O)C[C@@H]1O [calcitriol]		caused cell lifting from culture plates	
CCCCCCNC(=O)n1cc(F)c(=O)[nH]c1=O [carmofur, 5-fluoro-N-hexyl-2,4-dioxo-3,4-dihydropyrimidine-1(2H)-carboxamide]		caused cell lifting from culture plates	
CCN(CC)CCOc1ccc(C(=C(Cl)c2ccccc2)c2ccccc2)cc1 [clomid]		caused cell lifting from culture plates	
COC(=O)Nc1nc2cc(C(=O)c3ccc(F)cc3)ccc2[nH]1 [flubendazole]		caused cell lifting from culture plates	
CCC(C)n1ncn(-c2ccc(N3CCN(c4ccc(OCC5COC(Cn6cncn6)(c6ccc(Cl)cc6Cl)O5)cc4)CC3)cc2)c1=O (centres unmarked) [itraconazole, 4-(4-(4-(4((2((1H-1,2,4-triazol-1-yl)methyl)-2-(2,4-dichlorophenyl)-1,3-dioxolan-4-yl)methoxy)phenyl)piperazin-1-yl)phenyl)-1-(sec-butyl)-1H-1,2,4-triazol-5(4H)-one]		caused cell lifting from culture plates	
